Experimental data published in patent publication US6423741B1, “Anti-microbial composition and method for producing the same” (priority 1998, dated 2002).
Values after ≈ are worked out from the molar mass of the structure shown. Like-named read-outs stand apart in the source and are kept apart here.

How the values were obtained:
[1] = test system: Escherchia coli (Wild type); test: Frequency of spontaneous resistance on poison agar with nalidixic acid; format: cell-based; details: 50 μg/ml nalidixic acid poison agar
Description: (§1) In an experiment, the applicants first determined the frequency of spontaneous mutations in the bacteria Escherchia coil (Kumar, S. 1976. Journal of Bacteriology, 125: 545-555.) and Mycobacterium smegmatis (Snapper, S. B., Melton, R. E., Mustafa, S., Kieser, T. and Jacobs, W. R. 1990. Molecular Microbiology. 4:1911-1919.) leading to subsequent resistance development through selection in the presence of these drugs. Known titers of broth cultures of the bacteria were diluted and plated on poison agar medium containing 50 μg/ml nalidixic acid, and the resistant colonies thus developed were counted to estimate the frequency of drug resistance (Nal) development (Table 1).

[2] = test system: Mycobacterium smegmatis (Wild type); test: as above; format: cell-based; details: 50 μg/ml nalidixic acid poison agar
Description: as §1

[3] = test system: E. coli (Wildtype); test: Disc sensitivity of E. coli strains; format: cell-based; details: wild type strains; no dose stated
From the text: (§2) Since pathogens always try to counter the drug by genetically modifying itself through mutation(s) in the region of the drug target gene, it is necessary to kill those mutant(s) resistant cells for effective drug management. With this rationale, the applicants evaluated a selected drug resistant mutant strain (Ml) for nalidixic acid (wild type strains being sensitive to nalidixic acid). This mutant strain developed from wild type was defective in Gyr A subunit confirmed by mobilizing a plasmid bearing a wild type gyr A gene. […] Similarly a second mutant (M2) developed from the gyr A^− mutant strain (Nal^r) became sensitive to nalidixic acid which being resistant to α arteether (Table 3). It was noted that invariably among all the tested strains, those resistant to nalidixic acid were sensitive to α arteether and the strains sensitive to nalidixic acid were resistant to cc arteether. […] This is so, because the resistance to nalidixic acid is developed by gyr A mutation and the mutants will be killed by α arteether while, the α-arteether resistant strains will automatically become nalidixic acid sensitive and thus will be killed by nalidixic acid and this way all the spontaneous resistant bacteria could be contained.

[4] = test system: M1 (Mutant), gyr A− mutant; test: Disc sensitivity of E. coli strains; format: cell-based; details: gyr A− mutant (M1) developed from wild type; no dose stated
From the text: as §2

[5] = test system: M2 (Mutant); test: Disc sensitivity of E. coli strains; format: cell-based; details: second mutant (M2) developed from gyr A− mutant; no dose stated
From the text: as §2

[6] = test system: Escherchia coli mutant A1; test: Minimum inhibitory concentration of nalidixic acid; format: cell-based
Description: (§3) To determine the correlation between nalidixic acid and α-arteether sensitivity, the applicants selected Escherchia coli cultures which were resistant to nalidixic acid at varying degrees (concentrations). Based on the minimal inhibitory concentration of nalidixic acid, Escherchia coli mutants were grouped as highly sensitive (MIC less than or equal to 10 μg/ml), resistant (MIC 10 to 200 μg/ml), […] (MIC more than or equal to 200 μg/ml). These strains were then tested for their sensitivity against α-arteether by estimating their growth (Absorbance at 620 nano meter wavelength of light) in presence of increasing concentrations of α-arteether. The absorbance data was converted to percent growth by considering the absorbance in control as 100%. The growth was then quantified as follows: 1.) greater than 80% growth : the mutant is highly resistant to α-arteether; 2.) 20 to 80% growth : the mutant is moderately resistant to α-arteether; 3.) less than 20% growth : the mutant is sensitive to α-arteether. […] In other words Escherchia coli mutants most resistant to nalidixic acid are most efficiently killed by α-arteether (Table 4) and vice versa.

[7] = test system: Escherchia coli mutant A2; test: Minimum inhibitory concentration of nalidixic acid; format: cell-based
Description: as §3

[8] = test system: Escherchia coli mutant A3; test: Minimum inhibitory concentration of nalidixic acid; format: cell-based
Description: as §3

[9] = test system: Escherchia coli mutant A4; test: Minimum inhibitory concentration of nalidixic acid; format: cell-based
Description: as §3

[10] = test system: E. coli Wildtype; test: Resistance study, combination treatment vs mixed mutant cultures (optical density at 620 nm); format: cell-based
From the text: (§4) Continuing with the experimentation the applicants analyzed the growth of the mutant strains individually and upon co-cultivation compared to the wild type in presence of the compounds individually and in combination.

[11] = test system: M1 + M2 (co-cultivation); test: as above; format: cell-based, E. coli
From the text: as §4

[12] = test system: M1; test: as above; format: cell-based, E. coli
From the text: as §4

[13] = test system: M2; test: as above; format: cell-based, E. coli
From the text: as §4

[14] = test system: Escherchia coli (Nal′); test: Frequency of spontaneous resistance on plates with α-arteether; format: cell-based; details: 1000 μg/ml α-arteether
Description: (§5) Further to determine the frequency of spontaneous resistant mutants in Escherchia coil and Mycobacterium smegmatis for α-arteether, the applicants used the nalidixic acid resistant mutants from the earlier example as the wild type strains since those were sensitive to α-arteether to isolate α-arteether resistant colonies. Known titers of broth cultures of the mutant (Nal) bacteria were diluted and plated in petriplates containing 1000 μg/ml α-arteether, and the resistant colonies thus developed were counted to determine the frequencies (Table 2).

[15] = test system: Mycobacterium smegmatis (Nal′); test: as above; format: cell-based; details: 1000 μg/ml α-arteether
Description: as §5

[16] = test system: Escherchia coli mutant A1; test: Growth (absorbance at 620 nm) at increasing concentrations of α-arteether; format: cell-based
Description: as §3

[17] = test system: Escherchia coli mutant A2; test: as above; format: cell-based
Description: as §3

[18] = test system: Escherchia coli mutant A3; test: as above; format: cell-based
Description: as §3

[19] = test system: Escherchia coli mutant A4; test: as above; format: cell-based
Description: as §3

[20] = Activity at different pH; details: pH (neutral)
Description: Further, it is worth noting here that the said compounds of the invention are already in use for human consumption and the safety data of applications of the compounds are already known. As a known example of prior art (Asthana, O. P, Srivastava, J. S and Valecha, N., 1997. Current status of the artemisinin derivatives in the treatment of malaria with focus on arteether. Journal of Parasitic Diseases. 21: 1-12.), α/β arteether mixture is given at 150 mg doses (one dose per day, for 3 days) as intramuscular injection for treatment of drug resistant and cerebral malaria cases. The injections in the mentioned preparation are prepared in neutralized vegetable oil. Both the compounds of invention that is, α arteether and the quinolones have shown the best activities at pH 7.0 (neutral) in our experiments. Thus, the composition of this invention can be used to treat bacterial infections, particularly the cases where the emergence of drug resistance is known to have high incidence level. The said composition/composition can be employed for prevention of resistance development through random mutations occurring in bacteria against antibiotics. Various classes of quinolone drugs thus can be administered along with α-arteether in form of injection by suspending the compound in the neutralised vegetable oil. […]

[21] = test system: gyr mutant (Nal^r) strains of E.coli; details: earlier invention; cited from earlier work
[22] = test system: wild type (Nal^s) strains of E.coli; details: earlier invention; cited from earlier work
[23] = read-out: Minimum inhibitory concentration of nalidixic acid
[24] = read-out: Group by minimal inhibitory concentration of nalidixic acid

With `CCn1cc(C(=O)O)c(=O)c2ccc(C)nc21` [nalidixic acid] the “Frequency of spontaneous resistance developed against Nalidixic acid” value [1] was 7.1 × 10^−9, the “Frequency of spontaneous resistance developed against Nalidixic acid” value [2] was 1.0 × 10^−10 and the “Sensitivity of the strain” value [3] was “sensitive”. For the same compound, the “Sensitivity of the strain” value [4] was “resistant”, the “Sensitivity of the strain” value [5] was “sensitive” and the “Group by minimal inhibitory concentration of nalidixic acid” value ([6]; mutant A1) was “sensitive)”. The MIC [6, 23] was < 4 µg/mL, the MIC [7, 24] was 10 to 200 µg/mL (≈ 43.1 to 861 µM) and the MIC [7, 23] was 37.5 µg/mL (≈ 161 µM). For the same compound, the MIC [8, 24] was 10 to 200 µg/mL (≈ 43.1 to 861 µM), the MIC [8, 23] was 150 µg/mL (≈ 646 µM) and the MIC [9, 24] was > 200 µg/mL. The MIC [9, 23] was > 300 µg/mL, the “Optical density at 620 nanometer” value ([10]; nalidixic acid 50 μg/ml) was 0.000 and the “Optical density at 620 nanometer” value ([10]; nalidixic acid 300 μg/ml) was 0.000. For the same compound, the “Optical density at 620 nanometer” value ([11]; nalidixic acid 50 μg/ml) was 0.910, the “Optical density at 620 nanometer” value ([11]; nalidixic acid 300 μg/ml) was 0.920 and the “Optical density at 620 nanometer” value ([12]; nalidixic acid 50 μg/ml) was 0.950. The “Optical density at 620 nanometer” value ([12]; nalidixic acid 300 μg/ml) was 0.960, the “Optical density at 620 nanometer” value ([13]; nalidixic acid 50 μg/ml) was 0.000 and the “Optical density at 620 nanometer” value ([13]; nalidixic acid 300 μg/ml) was 0.000.

With `CCO[C@@H]1O[C@@H]2O[C@]3(C)CC[C@H]4[C@H](C)CC[C@@H]([C@H]1C)[C@@]24OO3` [α-arteether] the “Frequency of spontaneous resistance developed against α-arteether” value [14] was 1.8 × 10^−9, the “Frequency of spontaneous resistance developed against α-arteether” value [15] was 1.1 × 10^−10 and the “Sensitivity of the strain” value [4] was “sensitive”. For the same compound, the “Sensitivity of the strain” value [5] was “resistant”, the “Growth (absorbance at 620 nm)” value ([16]; 400 μg/ml α-arteether) was 0.858 and the “Percent growth (absorbance in control as 100%)” value ([16]; 400 μg/ml α-arteether) was “(93%)”. For the same compound, the “Growth (absorbance at 620 nm)” value ([16]; 800 μg/ml α-arteether) was 0.854, the “Percent growth (absorbance in control as 100%)” value ([16]; 800 μg/ml α-arteether) was “(93%)” and the “Growth (absorbance at 620 nm)” value ([16]; 1200 μg/ml α-arteether) was 0.817. For the same compound, the “Percent growth (absorbance in control as 100%)” value ([16]; 1200 μg/ml α-arteether) was “(89%)”, the “Growth (absorbance at 620 nm)” value ([17]; 400 μg/ml α-arteether) was 0.607 and the “Percent growth (absorbance in control as 100%)” value ([17]; 400 μg/ml α-arteether) was “(66%)”. For the same compound, the “Growth (absorbance at 620 nm)” value ([17]; 800 μg/ml α-arteether) was 0.539, the “Percent growth (absorbance in control as 100%)” value ([17]; 800 μg/ml α-arteether) was “(58%)” and the “Growth (absorbance at 620 nm)” value ([17]; 1200 μg/ml α-arteether) was 0.458. For the same compound, the “Percent growth (absorbance in control as 100%)” value ([17]; 1200 μg/ml α-arteether) was “(50%)”, the “Growth (absorbance at 620 nm)” value ([18]; 400 μg/ml α-arteether) was 0.421 and the “Percent growth (absorbance in control as 100%)” value ([18]; 400 μg/ml α-arteether) was “(50%)”. For the same compound, the “Growth (absorbance at 620 nm)” value ([18]; 800 μg/ml α-arteether) was 0.405, the “Percent growth (absorbance in control as 100%)” value ([18]; 800 μg/ml α-arteether) was “(47%)” and the “Growth (absorbance at 620 nm)” value ([18]; 1200 μg/ml α-arteether) was 0.390. The “Percent growth (absorbance in control as 100%)” value ([18]; 1200 μg/ml α-arteether) was 46%, the “Growth (absorbance at 620 nm)” value ([19]; 400 μg/ml α-arteether) was 0.017 and the “Percent growth (absorbance in control as 100%)” value ([19]; 400 μg/ml α-arteether) was “(2%)”. For the same compound, the “Growth (absorbance at 620 nm)” value ([19]; 800 μg/ml α-arteether) was 0.007, the “Percent growth (absorbance in control as 100%)” value ([19]; 800 μg/ml α-arteether) was “(0.7%)” and the “Growth (absorbance at 620 nm)” value ([19]; 1200 μg/ml α-arteether) was 0.000. For the same compound, the “Percent growth (absorbance in control as 100%)” value ([19]; 1200 μg/ml α-arteether) was “(0%)”, the “Optical density at 620 nanometer” value ([10]; α arteether 400 μg/ml) was 0.890 and the “Optical density at 620 nanometer” value ([10]; α arteether 800 μg/ml) was 0.90. The “Optical density at 620 nanometer” value ([11]; α arteether 400 μg/ml) was 0.920, the “Optical density at 620 nanometer” value ([11]; α arteether 800 μg/ml) was 0.930 and the “Optical density at 620 nanometer” value ([12]; α arteether 400 μg/ml) was 0.000. The “Optical density at 620 nanometer” value ([12]; α arteether 800 μg/ml) was 0.000, the “Optical density at 620 nanometer” value ([13]; α arteether 400 μg/ml) was 0.900 and the “Optical density at 620 nanometer” value ([13]; α arteether 800 μg/ml) was 0.91. The “pH of best activities” value [20] was 7.0, the “Effectiveness against the strains” value [21] was “effective” and the “Effectiveness against the strains” value [22] was “ineffective”.
